Test results as given in US9693994B2, “Class IIa HDAC inhibitors for the treatment of infection” (Research Development Foundation, priority 2014, dated 2017).
Where two headings read alike, the source gives them in different places.

What was measured:
[1] = tested on: Bone Marrow Macrophages (BMMs); assay: Cytokine mRNA and secretion in LPS-treated bone marrow macrophages; assay type: cell-based, mouse
[2] = Leptin injection in ob/ob mice: norepinephrine, cAMP and HDAC4 in adipose
histone deacetylase = conditions: Yoshida et al., 1990; read-out: Ki, inhibitor of histone deacetylase; cited from earlier work
NF-κB subunit p65 = assay: NF-κB signalling, immunoblot and ChIP in LPS-treated BMMs; assay type: cell-based, mouse
Method: Bone marrow macrophage cells (BMMs) were prepared from mouse bone marrow cells as described ([…] and Porse, 2008). BMMs were plated in 150-mm plates and exposed to LPS (10 ng/ml) with or without PGE2 (100 nM) for 1 hr. ChIP assays were performed as described (Screaton et al., 2004). RNA was isolated by RNeasy kit (Qiagen).

HDAC4 = HDAC4 dephosphorylation and localization in BMMs; assay type: cell-based, mouse; conditions: wild-type BMMs, PGE2 in combination with LPS
Method: Bone marrow macrophage cells (BMMs) were prepared from mouse bone marrow cells as described (Weischenfeldt and Porse, 2008).

[3] = Glucose and insulin tolerance testing in HFD-fed mice; assay type: in vivo; conditions: rolipram 7 days
Method: For HFD studies, 6-week-old mice were transferred to a 60% HFD (Research Diets, D12492) for 4 to 12 weeks as indicated. Magnetic resonance imaging scans for fat and lean mass were performed using an Echo MRI-100 instrument according to the manufacturer's instructions. For metabolic cage studies, mice were individually housed for at least 2 days. Food intake, total activity, oxygen consumption and carbon dioxide production were simultaneously measured for individually housed mice with a LabMaster system (TSE Systems). Data were collected for 2-3 days and analyzed. For glucose tolerance testing, mice were fasted for 16 h and then injected i.p. with glucose (1.5 g/kg). For insulin tolerance testing, mice were fasted 2 h and injected i.p. with insulin (Humulin; 1 U/kg). Rolipram (5 mg/kg/day) was injected i.p. for 7 days. Blood was collected from the tail vein and glucose levels were measured with a One Touch Ultra Glucometer (Johnson & Johnson).

[4] = LPS-induced sepsis: survival and circulating cytokines; assay type: in vivo, mice; conditions: for effect on survival after LPS: wild-type/control mice
Method: Cytokine and Metabolite Analysis: Mice were injected with LPS (30 mg/kg) with or without Rolipram (5 mg/kg for 16 hours (h) and serum was obtained through cardiac puncture. BMMs were stimulated with LPS (10 ng/ml) with or without PGE2 (100 nM) for 16 hr and supernatant was collected.
All mice were housed in colony cages with a 12 hr light/dark cycle in a temperature-controlled environment. For LPS-induced sepsis, mice were injected intraperitoneally with 30 mg/kg LPS or PBS (UT). Survival after LPS was monitored. For studies with KO mice, age-matched wild-type littermates were employed as controls.

CN[C@@H]1C[C@H]2O[C@@](C)([C@@H]1OC)n1c3ccccc3c3c4c(c5c6ccccc6n2c5c31)C(=O)NC4 [staurosporine]
cytokine gene expression ([1]; BMMs exposed to LPS, pre-treatment with SIK inhibitor 10 nM): decreased

CC(C)NCC(O)COc1cccc2ccccc12 (stereo not shown) [propranolol]
leptin-induced HDAC4 de-phosphorylation in WAT ([2]; leptin plus propranolol): propranolol-sensitive
leptin-induced rise in cAMP ([2]; ob/ob mice, leptin plus β adrenergic antagonist): blocked

CC(/C=C/C(=O)NO)=C\[C@@H](C)C(=O)c1ccc(N(C)C)cc1 [Trichostatin A, (2E,4E,6R)-7-(4-(Dimethylamino)phenyl)-N-hydroxy-4,6-dimethyl-7-oxo-2,4-heptadienamide]
Ki (histone deacetylase): ~3.4 nM

CCCCC[C@H](O)/C=C/[C@H]1[C@H](O)CC(=O)[C@@H]1C/C=C\CCCC(=O)O [PGE2, Prostaglandin E2]
activation of P38 or JNK, phosphorylation of IκBα or p65 in response to LPS (NF-κB subunit p65; BMMs, LPS plus PGE2): did not interfere
p65 recruitment to the TNFα and IL12β promoters (NF-κB subunit p65; BMMs, LPS plus PGE2 compared to LPS alone): reduced
amounts of acetylated p65 in HDAC4 MKO cells (NF-κB subunit p65; HDAC4 MKO BMMs, LPS plus PGE2): did not reduce
LPS-dependent increases in p65 and histone H4K5 acetylation over cytokine promoters (NF-κB subunit p65; wild-type BMMs, LPS plus PGE2): blocked
HDAC4 dephosphorylation at Ser246 and nuclear translocation (HDAC4): triggered
pro-inflammatory cytokine mRNA amounts and secretion ([1]; cultured BMMs exposed to LPS): reduced
IL10 mRNA and protein secretion ([1]; wild-type BMMs, LPS plus PGE2): upregulated

pertussis toxin
cytokine gene expression [1]: lowered

COc1ccc(C2CNC(=O)C2)cc1OC1CCCC1 (stereo not shown) [Rolipram]
glucose tolerance and insulin sensitivity in HDAC4 MKO ([3]; HDAC4 MKO littermates on HFD): not
glucose tolerance and insulin sensitivity ([3]; wild-type mice on HFD): improved
effect on LPS-induced cytokine release (circulating TNFα, IL12β) ([4]; C57BL/6J mice, LPS 30 mg/kg, Rolipram 5 mg/kg co-administered): blocked
effect on survival after LPS in HDAC4 MKO mice ([4]; HDAC4 MKO littermates, LPS plus rolipram): modest effects
effect on survival after LPS ([4]; LPS 30 mg/kg, Rolipram 5 mg/kg co-administered): blocked
effect on survival after LPS ([4]; LPS 30 mg/kg, Rolipram 5 mg/kg co-administered, listed as rolipram): improved survival

cholera toxin
cytokine gene expression [1]: lowered

B1: leptin: hormone injected into ob/ob mice; triggers catecholamine-dependent increases in cAMP signaling (protein, UniProt P41160 22-167, looked up)
Leptin: VPIQKVQDDTKTLIKTIVTRINDISHTQSVSAKQRVTGLDFIPGLHPILSLSKMDQTLAVYQQVLTSLPSQNVLQIANDLENLRDLLHLLAFSKSCSLPQTSGLQKPESLDGVLEASLYSTEVVALSRLQGSLQDILQQLDVSPEC
HDAC4 de-phosphorylation in WAT ([2]; leptin administration): promoted
nuclear translocation of HDAC4 in adipose resident macrophages ([2]; leptin administration): stimulated
circulating concentrations of norepinephrine and cAMP content in epididymal fat pads ([2]; ob/ob mice, leptin injection): upregulated
